US9340590B2 (priority 2011, dated 2016)
Positions of bridges follow the written chain, without caps; N, C: chain ends. Residues, ends and D or L forms follow the SMILES beside them.

What was measured:
hNav1.7 = hNav1.7 (Homo sapiens, UniProt Q15858); assay: cell-based; settings: Nav1.7 Use IC50
hNav1.5 = hNav1.5 (Homo sapiens, UniProt Q14524); assay: cell-based
Sequence of hNav1.5 (Q14524 whole entry, looked up): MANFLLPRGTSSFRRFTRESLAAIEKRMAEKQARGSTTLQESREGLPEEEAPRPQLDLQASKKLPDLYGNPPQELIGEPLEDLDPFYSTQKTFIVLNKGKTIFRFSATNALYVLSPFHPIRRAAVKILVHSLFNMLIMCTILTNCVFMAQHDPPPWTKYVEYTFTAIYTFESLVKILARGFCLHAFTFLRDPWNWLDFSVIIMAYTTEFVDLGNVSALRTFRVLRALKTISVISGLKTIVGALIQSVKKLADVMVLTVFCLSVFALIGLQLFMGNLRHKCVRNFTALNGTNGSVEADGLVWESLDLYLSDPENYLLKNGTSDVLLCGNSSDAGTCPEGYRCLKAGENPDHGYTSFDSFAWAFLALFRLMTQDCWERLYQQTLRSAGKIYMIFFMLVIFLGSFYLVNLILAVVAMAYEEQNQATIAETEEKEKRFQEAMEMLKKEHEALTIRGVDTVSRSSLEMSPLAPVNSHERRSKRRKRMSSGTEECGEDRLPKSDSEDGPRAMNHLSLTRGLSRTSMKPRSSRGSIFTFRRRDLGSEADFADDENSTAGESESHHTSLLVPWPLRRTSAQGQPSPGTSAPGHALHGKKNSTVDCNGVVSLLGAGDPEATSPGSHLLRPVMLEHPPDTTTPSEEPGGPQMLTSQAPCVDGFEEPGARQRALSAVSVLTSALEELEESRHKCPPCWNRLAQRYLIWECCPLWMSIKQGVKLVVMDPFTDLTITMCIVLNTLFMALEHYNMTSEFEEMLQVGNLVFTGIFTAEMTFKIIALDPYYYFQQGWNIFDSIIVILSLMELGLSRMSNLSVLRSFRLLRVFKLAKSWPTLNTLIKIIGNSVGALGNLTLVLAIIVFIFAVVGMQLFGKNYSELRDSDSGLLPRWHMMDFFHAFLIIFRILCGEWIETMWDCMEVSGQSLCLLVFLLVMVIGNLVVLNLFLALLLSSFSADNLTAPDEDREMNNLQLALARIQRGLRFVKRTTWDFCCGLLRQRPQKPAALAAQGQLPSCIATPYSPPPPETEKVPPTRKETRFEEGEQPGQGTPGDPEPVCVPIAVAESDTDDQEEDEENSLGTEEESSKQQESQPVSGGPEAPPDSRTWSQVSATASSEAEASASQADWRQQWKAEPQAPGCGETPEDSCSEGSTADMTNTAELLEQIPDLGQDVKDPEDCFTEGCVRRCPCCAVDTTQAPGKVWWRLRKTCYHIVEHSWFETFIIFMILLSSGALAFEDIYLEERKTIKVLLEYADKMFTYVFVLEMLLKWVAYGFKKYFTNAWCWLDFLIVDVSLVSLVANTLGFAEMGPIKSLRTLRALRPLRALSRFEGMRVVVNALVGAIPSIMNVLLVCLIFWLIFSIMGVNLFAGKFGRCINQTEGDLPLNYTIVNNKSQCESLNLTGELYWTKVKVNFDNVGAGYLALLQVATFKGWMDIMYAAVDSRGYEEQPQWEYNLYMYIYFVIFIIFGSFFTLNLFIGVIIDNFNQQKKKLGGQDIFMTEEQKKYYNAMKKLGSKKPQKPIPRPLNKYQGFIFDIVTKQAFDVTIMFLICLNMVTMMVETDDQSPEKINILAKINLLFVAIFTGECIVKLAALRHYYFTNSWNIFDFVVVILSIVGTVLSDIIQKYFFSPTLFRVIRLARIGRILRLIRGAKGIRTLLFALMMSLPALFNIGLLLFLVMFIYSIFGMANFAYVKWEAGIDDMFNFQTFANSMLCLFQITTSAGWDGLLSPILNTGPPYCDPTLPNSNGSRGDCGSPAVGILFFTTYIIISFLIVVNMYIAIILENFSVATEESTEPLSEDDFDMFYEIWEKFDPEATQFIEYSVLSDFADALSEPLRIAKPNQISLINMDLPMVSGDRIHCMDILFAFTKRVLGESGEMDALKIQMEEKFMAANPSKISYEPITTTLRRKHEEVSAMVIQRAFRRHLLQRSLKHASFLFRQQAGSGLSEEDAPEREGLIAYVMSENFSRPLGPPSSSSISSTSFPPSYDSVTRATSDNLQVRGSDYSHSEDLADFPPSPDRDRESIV

Sequence of hNav1.7 (Q15858 whole entry, looked up): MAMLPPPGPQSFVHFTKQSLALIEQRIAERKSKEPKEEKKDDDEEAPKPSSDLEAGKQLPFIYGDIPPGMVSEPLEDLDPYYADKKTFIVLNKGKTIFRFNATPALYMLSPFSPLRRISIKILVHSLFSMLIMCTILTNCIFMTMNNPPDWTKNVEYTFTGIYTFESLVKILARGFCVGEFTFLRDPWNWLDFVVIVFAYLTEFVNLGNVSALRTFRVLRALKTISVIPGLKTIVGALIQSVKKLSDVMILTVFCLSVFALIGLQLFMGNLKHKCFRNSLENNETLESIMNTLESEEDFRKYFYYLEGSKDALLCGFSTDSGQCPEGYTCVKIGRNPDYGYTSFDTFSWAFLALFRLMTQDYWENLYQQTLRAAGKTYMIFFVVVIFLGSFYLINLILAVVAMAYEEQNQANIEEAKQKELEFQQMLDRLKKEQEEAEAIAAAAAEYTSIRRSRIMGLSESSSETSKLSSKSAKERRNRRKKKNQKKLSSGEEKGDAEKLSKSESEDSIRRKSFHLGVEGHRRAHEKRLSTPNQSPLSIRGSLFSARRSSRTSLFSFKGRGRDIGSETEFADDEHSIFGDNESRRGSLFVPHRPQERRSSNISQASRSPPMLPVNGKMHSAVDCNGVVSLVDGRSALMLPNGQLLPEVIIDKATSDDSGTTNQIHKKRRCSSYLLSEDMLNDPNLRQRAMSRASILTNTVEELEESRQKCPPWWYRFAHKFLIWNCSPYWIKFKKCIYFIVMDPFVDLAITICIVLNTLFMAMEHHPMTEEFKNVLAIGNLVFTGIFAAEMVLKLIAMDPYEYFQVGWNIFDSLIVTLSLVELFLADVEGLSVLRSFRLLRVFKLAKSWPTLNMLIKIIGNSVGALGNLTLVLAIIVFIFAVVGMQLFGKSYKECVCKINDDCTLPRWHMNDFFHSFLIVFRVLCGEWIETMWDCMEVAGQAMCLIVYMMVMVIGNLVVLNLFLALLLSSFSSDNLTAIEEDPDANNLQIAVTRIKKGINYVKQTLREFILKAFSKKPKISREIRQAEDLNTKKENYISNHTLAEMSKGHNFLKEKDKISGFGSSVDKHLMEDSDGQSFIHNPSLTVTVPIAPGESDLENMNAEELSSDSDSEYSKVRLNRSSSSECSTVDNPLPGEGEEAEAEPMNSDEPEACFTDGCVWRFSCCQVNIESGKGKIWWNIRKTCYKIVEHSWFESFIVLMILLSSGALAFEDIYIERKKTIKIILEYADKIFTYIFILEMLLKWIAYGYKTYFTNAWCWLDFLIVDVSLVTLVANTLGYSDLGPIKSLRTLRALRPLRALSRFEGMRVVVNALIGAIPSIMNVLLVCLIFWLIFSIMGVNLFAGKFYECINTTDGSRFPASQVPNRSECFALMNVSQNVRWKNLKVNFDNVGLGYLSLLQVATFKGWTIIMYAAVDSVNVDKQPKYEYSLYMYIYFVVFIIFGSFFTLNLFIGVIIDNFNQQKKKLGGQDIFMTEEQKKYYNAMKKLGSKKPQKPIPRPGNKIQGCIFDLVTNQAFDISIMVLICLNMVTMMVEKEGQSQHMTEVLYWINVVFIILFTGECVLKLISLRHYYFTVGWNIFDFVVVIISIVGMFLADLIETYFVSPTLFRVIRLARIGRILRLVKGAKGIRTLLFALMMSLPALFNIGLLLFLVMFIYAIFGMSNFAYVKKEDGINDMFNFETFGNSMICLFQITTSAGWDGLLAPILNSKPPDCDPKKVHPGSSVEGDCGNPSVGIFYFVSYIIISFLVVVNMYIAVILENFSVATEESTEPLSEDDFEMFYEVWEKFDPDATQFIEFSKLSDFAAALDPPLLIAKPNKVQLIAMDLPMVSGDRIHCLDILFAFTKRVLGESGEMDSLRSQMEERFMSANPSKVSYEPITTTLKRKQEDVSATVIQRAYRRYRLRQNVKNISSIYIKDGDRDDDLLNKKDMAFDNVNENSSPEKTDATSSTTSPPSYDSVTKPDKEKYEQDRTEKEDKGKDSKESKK

SMILES | IC50 (hNav1.7) | IC50 (hNav1.5)
CC[C@@H]1NC(=O)CNC(=O)[C@H](CC(C)C)NC(=O)[C@@H](NC(=O)[C@@H](N)CC(=O)O)CSSC[C@@H]2NC(=O)[C@@H]3CSSC[C@@H](C(=O)N[C@@H](CCCCN)C(=O)N[C@@H](Cc4ccc(O)cc4)C(=O)N[C@H](C(=O)N[C@@H](Cc4ccccc4)C(N)=O)C(C)C)NC(=O)[C@H](Cc4c[nH]c5ccccc45)NC(=O)[C@H](CCCCN)NC(=O)[C@H](Cc4c[nH]cn4)NC(=O)[C@H]([C@@H](C)O)NC(=O)[C@H](CCCNC(=N)N)NC(=O)[C@H](CO)NC(=O)[C@H](CSSC[C@H](NC(=O)[C@H](CCCCN)NC(=O)[C@H](CCCNC(=N)N)NC(=O)[C@H](CC(C)C)NC1=O)C(=O)N[C@@H]([C@@H](C)CC)C(=O)N1CCC[C@H]1C(=O)N[C@@H](CC(=O)O)C(=O)N[C@@H](CC(N)=O)C(=O)N[C@@H](CC(=O)O)C(=O)N[C@@H](CCCCN)C(=O)N3)NC(=O)[C@H](C(C)C)NC(=O)[C@H](CC(C)C)NC(=O)[C@H](CC(N)=O)NC(=O)[C@@H]1CCCN1C(=O)[C@H](CCCNC(=N)N)NC2=O [[2-Abu5;Leu6]GpTx-1(1-34)] | 22 nM | > 10000 nM
CC[C@H](C)[C@@H]1NC(=O)[C@@H]2CSSC[C@@H]3NC(=O)[C@H](C(C)C)NC(=O)[C@H](CC(C)C)NC(=O)[C@H](CC(N)=O)NC(=O)[C@@H]4CCCN4C(=O)[C@H](CCCNC(=N)N)NC(=O)[C@H](CSSC[C@H](NC(=O)[C@@H](N)CC(=O)O)C(=O)N[C@@H](CC(C)C)C(=O)NCC(=O)N[C@@H](Cc4ccccc4)C(=O)N[C@@H](CCSC)C(=O)N[C@@H](CCCNC(=N)N)C(=O)N[C@@H](CCCCN)C(=O)N2)NC(=O)[C@H](CSSC[C@@H](C(=O)N[C@@H](CCCCN)C(=O)N[C@@H](Cc2ccc(O)cc2)C(=O)N[C@H](C(=O)N[C@@H](Cc2ccccc2)C(N)=O)C(C)C)NC(=O)[C@H](Cc2c[nH]c4ccccc24)NC(=O)[C@H](CCCCN)NC(=O)[C@H](Cc2cnc[nH]2)NC(=O)[C@H]([C@@H](C)O)NC(=O)[C@H](C)NC(=O)[C@H](CO)NC3=O)NC(=O)[C@H](CCCCN)NC(=O)[C@H](CC(=O)O)NC(=O)[C@H](CC(N)=O)NC(=O)[C@H](CC(=O)O)NC(=O)[C@@H]2CCCN2C1=O [[Ala25]GpTx-1(1-34)] (H-DCLGFMRKCIPDNDKCCRPNLVCSATHKWCKYVF-NH2; disulfide 2-17, 9-23, 16-30) | 12 nM | 10000 nM
CC[C@H](C)[C@@H]1NC(=O)[C@@H]2CSSC[C@@H]3NC(=O)[C@H](C(C)C)NC(=O)[C@H](CC(C)C)NC(=O)[C@H](CC(N)=O)NC(=O)[C@@H]4CCCN4C(=O)[C@H](CCCNC(=N)N)NC(=O)[C@H](CSSC[C@H](NC(=O)[C@@H](N)CC(=O)O)C(=O)N[C@@H](CC(C)C)C(=O)NCC(=O)N[C@@H](C)C(=O)N[C@@H](Cc4ccccc4)C(=O)N[C@@H](CCCNC(=N)N)C(=O)N[C@@H](CCCCN)C(=O)N2)NC(=O)[C@H](CSSC[C@@H](C(=O)N[C@@H](CCCCN)C(=O)N[C@@H](Cc2ccc(O)cc2)C(=O)N[C@H](C(=O)N[C@@H](Cc2ccccc2)C(=O)N[C@@H](Cc2ccccc2)C(=O)O)C(C)C)NC(=O)[C@H](Cc2c[nH]c4ccccc24)NC(=O)[C@H](CCCNC(=N)N)NC(=O)[C@H](Cc2c[nH]cn2)NC(=O)[C@H]([C@@H](C)O)NC(=O)[C@H](CCCNC(=N)N)NC(=O)[C@H](CO)NC3=O)NC(=O)[C@H](CCCCN)NC(=O)[C@H](CC(=O)O)NC(=O)[C@H](CC(N)=O)NC(=O)[C@H](CC(=O)O)NC(=O)[C@@H]2CCCN2C1=O [Ala5;Phe6;Arg28]GpTx-1(1-34)-Phe-] (H-DCLGAFRKCIPDNDKCCRPNLVCSRTHRWCKYVFF-OH; disulfide 2-17, 9-23, 16-30) | 116 nM | > 10000 nM
